From US20140228377A1, “METHYLPIPERIDINE DERIVATIVE” (TAISHO PHARMACEUTICAL CO., LTD., priority 2011, published 2014)

Columns and labels:
[1] = molecular target: T1, human orexin-1 receptor (hOX1R) (Homo sapiens, UniProt O43613); test: Orexin antagonistic activity assay (intracellular Ca2+, FDSS) in CHO cells expressing hOX1R; type: cell-based; conditions: CHO cells expressing hOX1R; ligand peptide 300 pM; Fluo-3 maximum fluorescence intensity; read-out: IC50 value OX1
T1 construct: expressed in transfected cells; host or cells: Chinese hamster ovary (CHO) cells
T1 sequence (O43613 1-425): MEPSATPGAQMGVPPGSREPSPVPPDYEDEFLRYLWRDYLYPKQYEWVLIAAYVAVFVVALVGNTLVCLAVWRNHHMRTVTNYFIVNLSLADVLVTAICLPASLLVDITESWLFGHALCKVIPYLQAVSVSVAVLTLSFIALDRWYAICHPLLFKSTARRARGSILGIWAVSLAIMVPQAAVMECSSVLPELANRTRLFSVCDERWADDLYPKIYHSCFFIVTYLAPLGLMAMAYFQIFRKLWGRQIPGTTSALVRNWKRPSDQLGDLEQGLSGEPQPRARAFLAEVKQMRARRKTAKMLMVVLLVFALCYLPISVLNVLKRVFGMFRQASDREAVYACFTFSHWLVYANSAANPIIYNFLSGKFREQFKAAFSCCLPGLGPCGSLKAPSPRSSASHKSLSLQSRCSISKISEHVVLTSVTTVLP
Procedure, shortened: (§1)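 Recombinant CHO cells, Fluo-3 AM loaded, were preincubated 30 min with compound, then stimulated with a modified orexin-A peptide (300 pM for hOX1R, 3 nM for hOX2R). Peak Ca2+ fluorescence read each second for 3 min; IC50 from concentration-response, normalised to ligand-only (100%) and no-ligand (0%) wells.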

[2] = molecular target: T2, orexin-2 receptor (hOX2R) (Homo sapiens, UniProt O43614); test: Orexin antagonistic activity assay (intracellular Ca2+, FDSS) in CHO cells expressing hOX2R; type: cell-based; conditions: CHO cells expressing hOX2R; ligand peptide 3 nM; Fluo-3 maximum fluorescence intensity; read-out: IC50 value OX2
T2 construct: expressed in transfected cells; host or cells: Chinese hamster ovary (CHO) cells
T2 sequence (O43614 1-444): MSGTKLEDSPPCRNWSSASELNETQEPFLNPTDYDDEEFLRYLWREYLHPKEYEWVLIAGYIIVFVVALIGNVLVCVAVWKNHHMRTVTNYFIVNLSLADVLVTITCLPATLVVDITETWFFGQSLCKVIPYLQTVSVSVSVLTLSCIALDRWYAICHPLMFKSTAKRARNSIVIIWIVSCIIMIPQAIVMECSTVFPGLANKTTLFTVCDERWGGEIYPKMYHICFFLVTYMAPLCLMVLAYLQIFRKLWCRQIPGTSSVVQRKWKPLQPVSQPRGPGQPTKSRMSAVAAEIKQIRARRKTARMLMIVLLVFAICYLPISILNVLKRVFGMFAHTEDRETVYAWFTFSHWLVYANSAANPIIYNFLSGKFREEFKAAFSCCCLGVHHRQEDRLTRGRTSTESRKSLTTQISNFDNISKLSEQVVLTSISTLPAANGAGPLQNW
Procedure, shortened: as §1

[3] = Metabolic stability test using human liver microsomes; type: in vitro ADME; conditions: human liver microsomes 0.25 mg protein/mL, test compound 1 μM, 37° C., 15 minutes, NADPH production system
Description: The stability test on a test compound was conducted according to the following method using human liver microsomes (Ms):
The test compound was incubated (37° C., 15 minutes) together with human liver microsome fraction (XenoTech LLC; H630B, lot. 0810472) in a 0.1 M phosphate buffer solution (pH 7.4) in the presence of a NADPH production system (0.16 mM NADP+, 2.5 mM MgCl2, and 1.5 mM glucose-6-phosphate). The final concentrations of the test compound and the liver Ms protein were set to 1 μM and 0.25 mg protein/mL, respectively. After the incubation, the reaction mixture was supplemented with a 2-fold volume of DMSO, stirred, and then centrifuged at 2150×g (4° C., 10 minutes). The obtained supernatant was analyzed using a liquid chromatography tandem mass spectrometry (LC-MS/MS) system. The lower limit of quantification was 0.1 μM.

| IC50 [1] [nM] | IC50 [2] [nM] | rate of metabolism [3] [%] | SMILES |
| --- | --- | --- | --- |
| 11 | 12.2 | 27.8 | Cc1ccc(-n2nccn2)c(C(=O)N2C[C@H](c3nc4cc(Cl)ccc4o3)CC[C@H]2C)n1 [Example 1, [(2R,5R)-5-(5-Chloro-1,3-benzoxazol-2-yl)-2-methylpiperidin-1-yl][6-methyl-3-(2H-1,2,3-triazol-2-yl)pyridin-2-yl]methanone] |
| 68.1 | 29.7 |  | C[C@@H]1CC[C@@H](c2nc3cc(F)ccc3o2)CN1C(=O)c1ccccc1-c1ncccn1 [Example 31, [(2R,5R)-5-(5-Fluoro-1,3-benzoxazol-2-yl)-2-methylpiperidin-1-yl][2-(pyrimidin-2-yl)phenyl]methanone] |
| 81.3 | 44.2 |  | Cc1ccc(-c2ncccn2)c(C(=O)N2C[C@H](c3nc4c(F)cc(F)cc4o3)CC[C@H]2C)c1 [Example 61, [(2R,5R)-5-(4,6-Difluoro-1,3-benzoxazol-2-yl)-2-methylpiperidin-1-yl][5-methyl-2-(pyrimidin-2-yl)phenyl]methanone] |
| 168 | 22.5 |  | C[C@@H]1CC[C@@H](c2nc3cc(Cl)ccc3o2)CN1C(=O)c1cc(F)ccc1-c1ncc(F)cn1 [Example 23, [(2R,5R)-5-(5-Chloro-1,3-benzoxazol-2-yl)-2-methylpiperidin-1-yl][5-fluoro-2-(5-fluoropyrimidin-2-yl)phenyl]methanone] |
| 74.4 | 3.7 |  | C[C@@H]1CC[C@@H](c2nc3cc(F)ccc3o2)CN1C(=O)c1cc(Cl)ccc1-n1nccn1 [Example 30, [5-Chloro-2-(2H-1,2,3-triazol-2-yl)phenyl][(2R,5R)-5-(5-fluoro-1,3-benzoxazol-2-yl)-2-methylpiperidin-1-yl]methanone] |
| 123 | 26.3 |  | C[C@@H]1CC[C@@H](c2nc3cc(C(F)(F)F)ccc3o2)CN1C(=O)c1cc(Cl)ccc1-c1ncccn1 [Example 39, [5-Chloro-2-(pyrimidin-2-yl)phenyl]{(2R,5R)-2-methyl-5-[5-(trifluoromethyl)-1,3-benzoxazol-2-yl]piperidin-1-yl}methanone] |
| 211 | 155 |  | C[C@@H]1CC[C@@H](c2nc3cc(Cl)ccc3o2)CN1C(=O)c1cc(C#N)ccc1-n1nccn1 [Example 21] |
| 50.4 | 1.5 |  | C[C@@H]1CC[C@@H](c2nc3cc(F)ccc3o2)CN1C(=O)c1ccccc1-n1nccn1 [Example 28, [(2R,5R)-5-(5-Fluoro-1,3-benzoxazol-2-yl)-2-methylpiperidin-1-yl][2-(2H-1,2,3-triazol-2-yl)phenyl]methanone] |
| 212 | 8.4 |  | C[C@@H]1CC[C@@H](c2nc3cc(F)ccc3o2)CN1C(=O)c1ccc(F)cc1-n1nccn1 [Example 34, [(2R,5R)-5-(5-Fluoro-1,3-benzoxazol-2-yl)-2-methylpiperidin-1-yl][4-fluoro-2-(2H-1,2,3-triazol-2-yl)phenyl]methanone] |
| 25.6 | 3.6 |  | C[C@@H]1CC[C@@H](c2nc3cc(Cl)ccc3o2)CN1C(=O)c1c(F)cccc1-n1nccn1 [Example 16, [(2R5R)-5-(5-Chloro-1,3-benzoxazol-2-yl)-2-methylpiperidin-1-yl][2-fluoro-6-(2H-1,2,3-triazol-2-yl)phenyl]methanone] |
| 36.5 | 20.4 |  | Cc1ccc(-n2nccn2)c(C(=O)N2C[C@H](c3nc4c(F)cccc4o3)CC[C@H]2C)c1 [Example 66, [(2R,5R)-5-(4-Fluoro-1,3-benzoxazol-2-yl)-2-methylpiperidin-1-yl][5-methyl-2-(2H-1,2,3-triazol-2-yl)phenyl]methanone] |
| 54.5 | 10.3 |  | C[C@@H]1CC[C@@H](c2nc3cc(Cl)ccc3o2)CN1C(=O)c1ccc(F)cc1-c1ncccn1 [Example 17, [(2R,5R)-5-(5-Chloro-1,3-benzoxazol-2-yl)-2-methylpiperidin-1-yl][4-fluoro-2-(pyrimidin-2-yl)phenyl]methanone] |
